Reference: patent US10202360B2 (CELGENE QUANTICEL RESEARCH, INC., priority 2016, dated 2019)

target: CREBBP (Homo sapiens (Human), UniProt Q92793); test: In vitro enzyme inhibition assay - CREBBP inhibition (AlphaScreen, biotinylated H4-tetraacetyl peptide); type: binding; conditions: Table 28; AlphaScreen, H4-tetraacetyl peptide
Description: Determination of the IC50 for the CREBBP inhibitors disclosed herein was performed as follows: CREBBP was cloned and expressed in E. Coli as His-tag protein and purified by Nickel affinity and gel-filtration chromatography. […] CREBBP binding and inhibition was assessed by monitoring the interaction of biotinylated H4-tetraacetyl peptide (AnaSpec, H4K5/8/12/16(Ac), biotin-labeled) with the target using the AlphaScreen technology (Perkin Elmer). In a 384-well ProxiPlate CREBBP (50 nM final) was combined with peptide (20 nM final) in 50 mM HEPES (pH 7.3), 10 mM NaCl, 0.25 mM TCEP, 0.1% (w/v) BSA, and 0.005% (w/v) Brij-35 either in the presence of DMSO (final 0.4% DMSO) or compound dilution series in DMSO. After 20-minute incubation at room temperature, Alpha streptavidin donor beads and Nickel Chelate acceptor beads were added to a final concentration of 5 μg/mL. After two hours of equilibration, plates were read on an Envision instrument and the IC50 was calculated using a four parameter non-linear curve fit.
The ability of the compounds disclosed herein to inhibit CBP activity was quantified and the respective IC50 value was determined.

Sequence of CREBBP (Q92793 1081-1197): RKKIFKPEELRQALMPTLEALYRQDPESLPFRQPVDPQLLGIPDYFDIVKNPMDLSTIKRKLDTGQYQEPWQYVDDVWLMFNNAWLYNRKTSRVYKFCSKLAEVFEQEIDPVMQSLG

| SMILES | IC50 |
| --- | --- |
| Cc1cc(-c2cc(NS(=O)(=O)C(C)C)nc(Oc3cc(Cl)ccc3Cl)n2)cn(C)c1=O [Example 1, Propane-2-sulfonic acid [2-(2,5-dichloro-phenoxy)-6-(1,5-dimethyl-6-oxo-1,6-dihydro-pyridin-3-yl)-pyrimidin-4-yl]-amide] | < 500 nM |
| Cc1ccc(C)c(Oc2nc(NS(=O)(=O)C(C)C)cc(-c3cc(C)c(=O)n(C)c3)n2)c1 [Example 2, Propane-2-sulfonic acid [6-(1,5-dimethyl-6-oxo-1,6-dihydro-pyridin-3-yl)-2-(2,5-dimethyl-phenoxy)-pyrimidin-4-yl]-amide] | < 500 nM |
| COc1ccc(C)cc1Oc1nc(NS(=O)(=O)C(C)C)cc(-c2cc(C)c(=O)n(C)c2)n1 [Example 4, Propane-2-sulfonic acid [6-(1,5-dimethyl-6-oxo-1,6-dihydro-pyridin-3-yl)-2-(2-methoxy-5-methyl-phenoxy)-pyrimidin-4-yl]-amide] | < 500 nM |
| Cc1ccc(Cl)c(Oc2nc(NS(=O)(=O)C(C)C)cc(-c3cc(C)c(=O)n(C)c3)n2)c1 [Example 5, Propane-2-sulfonic acid [2-(2-chloro-5-methyl-phenoxy)-6-(1,5-dimethyl-6-oxo-1,6-dihydro-pyridin-3-yl)-pyrimidin-4-yl]-amide] | < 500 nM |
| Cc1ccc(Cl)cc1Oc1nc(NS(=O)(=O)C(C)C)cc(-c2cc(C)c(=O)n(C)c2)n1 [Example 6, Propane-2-sulfonic acid [2-(5-chloro-2-methyl-phenoxy)-6-(1,5-dimethyl-6-oxo-1,6-dihydro-pyridin-3-yl)-pyrimidin-4-yl]-amide] | < 500 nM |

Further lines, results first:

| IC50 | SMILES |
| --- | --- |
| < 500 nM | Cc1ccc(C#N)cc1Oc1nc(NS(=O)(=O)C(C)C)cc(-c2cc(C)c(=O)n(C)c2)n1 [Example 7, Propane-2-sulfonic acid [2-(5-cyano-2-methyl-phenoxy)-6-(1,5-dimethyl-6-oxo-1,6-dihydro-pyridin-3-yl)-pyrimidin-4-yl]-amide] |
| < 500 nM | COc1cccc(C)c1Oc1nc(NS(=O)(=O)C(C)C)cc(-c2cc(C)c(=O)n(C)c2)n1 [Example 8, Propane-2-sulfonic acid [6-(1,5-dimethyl-6-oxo-1,6-dihydro-pyridin-3-yl)-2-(2-methoxy-6-methyl-phenoxy)-pyrimidin-4-yl]-amide] |
| < 500 nM | COc1ccc(C#N)cc1Oc1nc(NS(=O)(=O)C(C)C)cc(-c2cc(C)c(=O)n(C)c2)n1 [Example 9, Propane-2-sulfonic acid [2-(5-cyano-2-methoxy-phenoxy)-6-(1,5-dimethyl-6-oxo-1,6-dihydro-pyridin-3-yl)-pyrimidin-4-yl]-amide] |
| < 500 nM | CCCCS(=O)(=O)Nc1cc(-c2cc(C)c(=O)n(C)c2)nc(Oc2cc(C#N)ccc2OC)n1 [Example 10, Butane-1-sulfonic acid [2-(5-cyano-2-methoxy-phenoxy)-6-(1,5-dimethyl-6-oxo-1,6-dihydro-pyridin-3-yl)-pyrimidin-4-yl]-amide] |
| < 500 nM | CCCCS(=O)(=O)Nc1cc(-c2cc(C)c(=O)n(C)c2)nc(Oc2c(C#N)cccc2OC)n1 [Example 12, Butane-1-sulfonic acid [2-(2-cyano-6-methoxy-phenoxy)-6-(1,5-dimethyl-6-oxo-1,6-dihydro-pyridin-3-yl)-pyrimidin-4-yl]-amide] |
| < 500 nM | CCCCS(=O)(=O)Nc1cc(-c2cc(C)c(=O)n(C)c2)nc(Oc2cc(Cl)ccc2Cl)n1 [Example 13, Butane-1-sulfonic acid [2-(2,5-dichloro-phenoxy)-6-(1,5-dimethyl-6-oxo-1,6-dihydro-pyridin-3-yl)-pyrimidin-4-yl]-amide] |
| < 500 nM | CCCCS(=O)(=O)Nc1cc(-c2cc(C)c(=O)n(C)c2)nc(Oc2cc(C)ccc2Cl)n1 [Example 15, Butane-1-sulfonic acid [2-(2-chloro-5-methyl-phenoxy)-6-(1,5-dimethyl-6-oxo-1,6-dihydro-pyridin-3-yl)-pyrimidin-4-yl]-amide] |
